Like-named read-outs stand apart in the source and are kept apart here. Each block holds one molecule with its values, some of them ahead of it.
Columns and labels:
[1] = tested on: MM.1S (MM1S); test: CCK-8 tumor cell proliferation IC50, MM.1S; details: MM.1S cells, compounds designed based on the IRAK4 inhibitors, read-out: Inhibitory activity (IC50, nM) on tumor cell proliferation, MM.1S
Protocol: (§1) The tumor cells used herein were cultured in a cell culture medium listed in table A1 at 37° C. in an incubator with 5% CO2. Prior to experimentation, all cell lines used were correctly identified by STR profiling, and tested negative for mycoplasma contamination using a mycoplasma detection kit through routine screenings.
(§2) IC50 values of the compounds of the present disclosure (including the compounds in Table 1, and compounds of examples) were measured using the Meilun Cell Counting Kit-8 kit from Dalian Meilun Biotech Co., Ltd. Assay details are as follows: tumor cells were seeded in a 96-well plate at a density listed in Table A2. After 24 h, 100 μL of the inoculated cells were treated with 0.5 μL of the compounds of the present disclosure (including the compounds in Tables 1 and 2, and compounds of examples) at 10 different successively decreasing concentrations (starting at the highest concentration of 1 μM; 5-fold serial dilutions). After the cells were treated with the compounds of the present disclosure for a period of time, the cell viability detection reagent was added to the culture medium for cell viability assessment according to the instructions provided with the CCK-8 kit. […] The growth inhibition of the compounds of the present disclosure on cells was plotted by Prism Graphpad software, and the IC50 values of the compounds of the present disclosure were calculated therefrom.

[2] = tested on: MGC-803 (MGC80-3, MGC803); test: CCK-8 tumor cell proliferation IC50, MGC-803; design: species or system human; details: MGC803 cells, compounds designed based on the IRAK4 inhibitors, read-out: Inhibitory activity (IC50, nM) on tumor cell proliferation, MGC803
Protocol: as §1, §2

[3] = tested on: H1299; test: CCK-8 tumor cell proliferation IC50, H1299; design: species or system human; details: compounds designed based on the IRAK4 inhibitors, read-out: Inhibitory activity (IC50, nM) on tumor cell proliferation, H1299
Protocol: as §1, §2

[4] = tested on: NCI-H1975 (H1975); test: CCK-8 tumor cell proliferation IC50, NCI-H1975; details: Homo sapiens, Table B3, designed based on the EGFR inhibitors, 96 hours, read-out: Inhibitory activity (IC50, nM) on tumor cell proliferation: H1975
Protocol: as §1
as §2, with “dilutions).” for “dilutions). After the cells were treated with the compounds of the present disclosure for a period of time, the cell viability detection reagent was added to the culture medium for cell viability assessment according to the instructions provided with the CCK-8 kit.”

[5] = tested on: SR; test: CCK-8 tumor cell proliferation IC50, SR; details: Homo sapiens, SR cells, compounds designed based on the IRAK4 inhibitors, read-out: Inhibitory activity (IC50, nM) on tumor cell proliferation, SR
Protocol: as §1
as §2, with “dilutions).” for “dilutions). After the cells were treated with the compounds of the present disclosure for a period of time, the cell viability detection reagent was added to the culture medium for cell viability assessment according to the instructions provided with the CCK-8 kit.”

[6] = tested on: CCRF-CEM; test: CCK-8 tumor cell proliferation IC50, CCRF-CEM; details: Homo sapiens, CCRF-CEM cells, compounds designed based on the IRAK4 inhibitors, read-out: Inhibitory activity (IC50, nM) on tumor cell proliferation, CCRF-CEM
Protocol: as §1
as §2, with “dilutions).” for “dilutions). After the cells were treated with the compounds of the present disclosure for a period of time, the cell viability detection reagent was added to the culture medium for cell viability assessment according to the instructions provided with the CCK-8 kit.”

[7] = tested on: LNcap; test: CCK-8 tumor cell proliferation IC50, LNcap; details: Homo sapiens, Lncap cells, compounds designed based on the IRAK4 inhibitors, read-out: Inhibitory activity (IC50, nM) on tumor cell proliferation, Lncap
Protocol: as §1
as §2, with “dilutions).” for “dilutions). After the cells were treated with the compounds of the present disclosure for a period of time, the cell viability detection reagent was added to the culture medium for cell viability assessment according to the instructions provided with the CCK-8 kit.”

[8] = tested on: MV-4-11; test: CCK-8 tumor cell proliferation IC50, MV-4-11; details: Homo sapiens, MV4-11, MV-4-11 cells, compounds designed based on the IRAK4 inhibitors, read-out: Inhibitory activity (IC50, nM) on tumor cell proliferation, MV-4-11
Protocol: as §1
as §2, with “dilutions).” for “dilutions). After the cells were treated with the compounds of the present disclosure for a period of time, the cell viability detection reagent was added to the culture medium for cell viability assessment according to the instructions provided with the CCK-8 kit.”

[9] = tested on: Jurkat; test: CCK-8 tumor cell proliferation IC50, Jurkat; details: Homo sapiens, Jurkat cells, compounds designed based on the IRAK4 inhibitors, read-out: Inhibitory activity (IC50, nM) on tumor cell proliferation, Jurkat
Protocol: as §1
as §2, with “dilutions).” for “dilutions). After the cells were treated with the compounds of the present disclosure for a period of time, the cell viability detection reagent was added to the culture medium for cell viability assessment according to the instructions provided with the CCK-8 kit.”

[10] = tested on: MM.1R; test: CCK-8 tumor cell proliferation IC50, MM.1R; details: Table B4, designed based on the CDK4/6 inhibitors, 72 hours, read-out: Inhibitory activity (IC50, nM) on tumor cell proliferation: MM.1R
Protocol: as §1
as §2, with “dilutions).” for “dilutions). After the cells were treated with the compounds of the present disclosure for a period of time, the cell viability detection reagent was added to the culture medium for cell viability assessment according to the instructions provided with the CCK-8 kit.”

[11] = target: T1, IKZF3 (Homo sapiens, UniProt Q96SW2+Q9UKT9); test: Western blot degradation of IKZF3 in hPBMC; format: cell-based
T1 construct: endogenous in cells; host or cells: hPBMC
T1 sequence (Q9UKT9 whole entry): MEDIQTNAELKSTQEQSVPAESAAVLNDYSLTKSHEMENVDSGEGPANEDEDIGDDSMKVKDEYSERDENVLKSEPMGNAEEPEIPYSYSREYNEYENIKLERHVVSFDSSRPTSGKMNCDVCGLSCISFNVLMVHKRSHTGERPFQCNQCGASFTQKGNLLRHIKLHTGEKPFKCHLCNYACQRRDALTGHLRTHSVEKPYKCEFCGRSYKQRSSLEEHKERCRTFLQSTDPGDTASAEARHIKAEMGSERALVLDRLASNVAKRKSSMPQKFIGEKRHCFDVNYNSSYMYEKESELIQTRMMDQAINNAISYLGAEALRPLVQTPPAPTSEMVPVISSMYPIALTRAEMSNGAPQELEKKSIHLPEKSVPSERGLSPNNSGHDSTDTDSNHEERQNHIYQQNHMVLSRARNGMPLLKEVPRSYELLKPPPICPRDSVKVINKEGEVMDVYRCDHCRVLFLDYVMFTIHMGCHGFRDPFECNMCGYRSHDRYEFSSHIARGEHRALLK
T1 sequence (Q96SW2 whole entry): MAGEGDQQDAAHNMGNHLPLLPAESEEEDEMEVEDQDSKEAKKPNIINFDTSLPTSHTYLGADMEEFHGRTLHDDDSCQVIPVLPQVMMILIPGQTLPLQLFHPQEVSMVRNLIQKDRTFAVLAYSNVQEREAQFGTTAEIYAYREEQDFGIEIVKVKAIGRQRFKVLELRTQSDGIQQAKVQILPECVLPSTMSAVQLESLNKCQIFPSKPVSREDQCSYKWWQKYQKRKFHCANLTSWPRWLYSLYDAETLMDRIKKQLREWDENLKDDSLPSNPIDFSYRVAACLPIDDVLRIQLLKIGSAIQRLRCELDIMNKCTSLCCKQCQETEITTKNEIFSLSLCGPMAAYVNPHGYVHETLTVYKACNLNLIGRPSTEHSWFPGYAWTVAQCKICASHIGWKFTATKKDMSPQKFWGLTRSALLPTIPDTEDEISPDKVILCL
T1 sequence (Q16531 whole entry partner): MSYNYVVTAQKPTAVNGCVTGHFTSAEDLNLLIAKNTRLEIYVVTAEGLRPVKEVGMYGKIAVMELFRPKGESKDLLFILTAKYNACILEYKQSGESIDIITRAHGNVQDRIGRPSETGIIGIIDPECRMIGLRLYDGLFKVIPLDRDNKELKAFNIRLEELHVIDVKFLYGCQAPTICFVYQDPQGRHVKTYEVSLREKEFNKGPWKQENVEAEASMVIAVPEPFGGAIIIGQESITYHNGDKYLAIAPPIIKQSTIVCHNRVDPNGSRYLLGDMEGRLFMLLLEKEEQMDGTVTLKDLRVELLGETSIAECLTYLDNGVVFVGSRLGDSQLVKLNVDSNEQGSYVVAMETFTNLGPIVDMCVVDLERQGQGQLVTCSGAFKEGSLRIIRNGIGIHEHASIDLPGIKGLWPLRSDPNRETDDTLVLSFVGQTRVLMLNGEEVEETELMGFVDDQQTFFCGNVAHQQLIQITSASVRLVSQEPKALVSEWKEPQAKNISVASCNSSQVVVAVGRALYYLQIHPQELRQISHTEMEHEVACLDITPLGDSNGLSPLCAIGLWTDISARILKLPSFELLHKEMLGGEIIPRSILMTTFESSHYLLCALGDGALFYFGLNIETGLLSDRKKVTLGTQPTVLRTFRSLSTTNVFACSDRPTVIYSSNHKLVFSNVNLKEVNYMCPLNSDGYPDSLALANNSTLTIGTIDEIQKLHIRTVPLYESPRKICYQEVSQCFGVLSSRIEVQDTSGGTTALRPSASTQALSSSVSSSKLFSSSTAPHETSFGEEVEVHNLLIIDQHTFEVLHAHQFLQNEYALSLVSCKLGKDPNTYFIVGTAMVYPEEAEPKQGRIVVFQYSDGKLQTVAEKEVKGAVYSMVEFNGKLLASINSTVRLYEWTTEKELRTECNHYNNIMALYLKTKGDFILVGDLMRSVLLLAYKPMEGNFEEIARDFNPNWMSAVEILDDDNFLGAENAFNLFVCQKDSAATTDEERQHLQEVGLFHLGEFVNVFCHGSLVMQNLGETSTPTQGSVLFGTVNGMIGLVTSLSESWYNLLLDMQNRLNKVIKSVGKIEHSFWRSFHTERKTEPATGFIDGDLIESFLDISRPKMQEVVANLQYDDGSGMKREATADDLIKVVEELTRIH
In short: (§3)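 Compound-treated hPBMC lysates were denatured in SDS loading buffer at 95° C for 5 minutes, run on SDS-PAGE and blotted to nitrocellulose. DC50 is the concentration giving band grayscale half that of DMSO controls, from a fitted concentration-response curve; remaining protein is band intensity normalized to an internal control protein.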

[12] = target: T2, CK1a (Homo sapiens, UniProt P48729+Q96SW2); test: Western blot degradation of CK1a in hPBMC; format: cell-based
T2 construct: endogenous in cells; host or cells: hPBMC
In short: as §3

[13] = target: T3, IKZF1 (Homo sapiens, UniProt Q13422+Q96SW2); test: Western blot degradation of IKZF1 in hPBMC; format: cell-based
T3 construct: endogenous in cells; host or cells: hPBMC
T3 sequence (Q13422 whole entry): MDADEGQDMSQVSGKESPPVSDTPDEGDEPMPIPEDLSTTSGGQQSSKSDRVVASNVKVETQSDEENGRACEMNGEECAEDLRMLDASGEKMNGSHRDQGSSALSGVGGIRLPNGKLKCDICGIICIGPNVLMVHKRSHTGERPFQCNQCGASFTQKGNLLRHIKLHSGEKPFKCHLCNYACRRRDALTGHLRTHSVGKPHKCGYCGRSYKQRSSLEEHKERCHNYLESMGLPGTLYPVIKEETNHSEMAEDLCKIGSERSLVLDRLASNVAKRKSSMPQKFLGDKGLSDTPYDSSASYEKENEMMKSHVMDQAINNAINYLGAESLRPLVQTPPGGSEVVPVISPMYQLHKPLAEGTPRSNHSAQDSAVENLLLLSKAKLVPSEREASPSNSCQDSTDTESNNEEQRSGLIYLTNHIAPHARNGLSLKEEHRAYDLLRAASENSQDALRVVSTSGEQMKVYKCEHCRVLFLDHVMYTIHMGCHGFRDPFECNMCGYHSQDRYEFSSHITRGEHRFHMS
T3 sequence (Q96SW2 whole entry): as the sequence (Q96SW2 whole entry) above
T3 sequence (Q16531 whole entry partner): as the sequence (Q16531 whole entry partner) above
In short: as §3

[14] = target: T4, IKZF2 (Homo sapiens, UniProt Q96SW2+Q9UKS7); test: Western blot degradation of IKZF2 in hPBMC; format: cell-based
T4 construct: endogenous in cells; host or cells: hPBMC
T4 sequence (Q9UKS7 whole entry): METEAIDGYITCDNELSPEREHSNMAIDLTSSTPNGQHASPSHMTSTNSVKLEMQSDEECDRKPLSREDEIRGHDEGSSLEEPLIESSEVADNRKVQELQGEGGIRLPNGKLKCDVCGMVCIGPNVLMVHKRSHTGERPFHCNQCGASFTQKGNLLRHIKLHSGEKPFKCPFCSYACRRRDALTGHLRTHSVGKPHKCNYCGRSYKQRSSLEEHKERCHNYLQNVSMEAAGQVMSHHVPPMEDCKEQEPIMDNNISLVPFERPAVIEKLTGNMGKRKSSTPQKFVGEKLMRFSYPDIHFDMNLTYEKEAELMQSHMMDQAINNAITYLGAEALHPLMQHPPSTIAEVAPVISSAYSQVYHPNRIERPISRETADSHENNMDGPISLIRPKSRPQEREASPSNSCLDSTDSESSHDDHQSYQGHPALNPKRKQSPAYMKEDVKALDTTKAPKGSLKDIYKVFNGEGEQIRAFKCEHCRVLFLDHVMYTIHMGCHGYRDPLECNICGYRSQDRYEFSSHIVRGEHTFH
T4 sequence (Q96SW2 whole entry): as the sequence (Q96SW2 whole entry) above
T4 sequence (Q16531 whole entry partner): as the sequence (Q16531 whole entry partner) above
In short: as §3

[15] = target: T5, GSPT1 (Homo sapiens, UniProt P15170+Q96SW2); test: Western blot degradation of GSPT1 in hPBMC; format: cell-based
T5 construct: endogenous in cells; host or cells: hPBMC
T5 sequence (P15170 whole entry): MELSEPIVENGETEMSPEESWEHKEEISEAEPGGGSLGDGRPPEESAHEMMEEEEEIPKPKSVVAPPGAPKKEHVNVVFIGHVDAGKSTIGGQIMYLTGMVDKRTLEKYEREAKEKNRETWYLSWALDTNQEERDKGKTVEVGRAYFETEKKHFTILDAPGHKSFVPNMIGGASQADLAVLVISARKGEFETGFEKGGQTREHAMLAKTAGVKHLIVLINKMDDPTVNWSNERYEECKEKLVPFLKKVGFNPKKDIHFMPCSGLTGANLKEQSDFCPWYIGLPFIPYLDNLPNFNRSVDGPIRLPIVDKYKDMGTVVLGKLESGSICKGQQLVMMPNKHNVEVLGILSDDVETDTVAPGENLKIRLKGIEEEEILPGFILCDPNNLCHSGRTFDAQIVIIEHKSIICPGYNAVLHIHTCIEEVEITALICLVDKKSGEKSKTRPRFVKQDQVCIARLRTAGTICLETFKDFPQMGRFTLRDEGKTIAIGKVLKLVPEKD
T5 sequence (Q96SW2 whole entry): as the sequence (Q96SW2 whole entry) above
T5 sequence (Q16531 whole entry partner): as the sequence (Q16531 whole entry partner) above
In short: as §3

[16] = target: T6, WEE1 (Homo sapiens, UniProt P30291+Q96SW2); test: Western blot degradation of WEE1 in hPBMC; format: cell-based
T6 construct: endogenous in cells; host or cells: hPBMC
T6 sequence (P30291 whole entry): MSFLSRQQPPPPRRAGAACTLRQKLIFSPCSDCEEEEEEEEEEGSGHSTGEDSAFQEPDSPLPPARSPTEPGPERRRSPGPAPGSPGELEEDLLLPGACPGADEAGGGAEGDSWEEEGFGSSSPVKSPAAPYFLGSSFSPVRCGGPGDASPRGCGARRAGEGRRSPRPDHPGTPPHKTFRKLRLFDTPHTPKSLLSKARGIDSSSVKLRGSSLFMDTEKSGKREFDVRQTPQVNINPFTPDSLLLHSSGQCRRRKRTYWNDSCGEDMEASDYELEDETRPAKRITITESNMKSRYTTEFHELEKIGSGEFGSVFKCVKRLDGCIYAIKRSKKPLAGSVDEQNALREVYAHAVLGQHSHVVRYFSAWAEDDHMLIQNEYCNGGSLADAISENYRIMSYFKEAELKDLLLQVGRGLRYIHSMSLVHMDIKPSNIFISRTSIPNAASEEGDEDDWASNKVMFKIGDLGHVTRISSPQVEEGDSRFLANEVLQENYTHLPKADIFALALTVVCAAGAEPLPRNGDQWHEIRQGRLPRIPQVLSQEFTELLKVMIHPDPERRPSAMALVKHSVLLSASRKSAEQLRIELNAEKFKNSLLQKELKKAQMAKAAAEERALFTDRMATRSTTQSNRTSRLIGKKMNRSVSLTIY
T6 sequence (Q96SW2 whole entry): as the sequence (Q96SW2 whole entry) above
T6 sequence (Q16531 whole entry partner): as the sequence (Q16531 whole entry partner) above
In short: as §3

SMILES: O=C1CCC(Nc2cccc(CN3CCN(Cc4ccc5c(c4)nc(NC(=O)c4cccc(C(F)(F)F)c4)n5C4CCC(CO)CC4)CC3)c2)C(=O)N1 (centres unmarked) [GT-04976, N-(5-((4-(3-((2,6-dioxopiperidin-3-yl)amino)benzyl)piperazin-1-yl)methyl)-1-((1s,4s)-4-(hydroxymethyl)cyclohexyl)-1H-benzo[d]imidazol-2-yl)-3-(trifluoromethyl)benzamide]
- IC50 [1]: 100 to 500 nM

SMILES: O=C1CCC(c2ccc(CN3CCN(c4ccc5c(c4)nc(NC(=O)c4cccc(C(F)(F)F)c4)n5C4CCC(CO)CC4)CC3)cc2)C(=O)N1 (centres unmarked) [GT-04981, N-(5-(4-(4-(2,6-dioxopiperidin-3-yl)benzyl)piperazin-1-yl)-1-((1s,4s)-4-(hydroxymethyl)cyclohexyl)-1H-benzo[d]imidazol-2-yl)-3-(trifluoromethyl)benzamide]
- IC50 [1]: 100 to 500 nM
- IC50 [2]: 500 to 1000 nM
- IC50 ([3]; H1299 cells): 500 to 1000 nM

SMILES: O=C1CCN(c2ccc(CN3C4CCC3CN(c3ccc(-c5cc(F)c6c(c5)C(=O)N(C(C(=O)Nc5nccs5)c5ncn7c5CCC7)C6)cc3)C4)cn2)C(=O)N1 (centres unmarked) [GT-06256, 2-(6,7-dihydro-5H-pyrrolo[1,2-c]imidazol-1-yl)-2-(6-(4-(8-((6-(2,4-dioxotetrahydropyrimidin-1(2H)-yl)pyridin-3-yl)methyl)-3,8-diazabicyclo[3.2.1]octan-3-yl)phenyl)-4-fluoro-1-oxoisoindolin-2-yl)-N-(thiazol-2-yl)acetamide]
- IC50 [4]: 1 to 10 nM

SMILES: Cc1cc(-c2nc(C(=O)Nc3cc4oc(N5CCOCC5)nc4nc3N3CC[C@@H](O)C3)co2)ccn1 [emavusertib]
- IC50 [5]: > 10000 nM
- IC50 [6]: > 10000 nM
- IC50 [7]: > 10000 nM
- IC50 [8]: 50 to 100 nM
- IC50 [9]: > 10000 nM
- IC50 ([3]; Homo sapiens, NCI-H1299, H1299 cells): > 10000 nM

SMILES: O=C1CCC(Nc2cccc(CN3C4CCC3CN(c3ccc(-c5cc(F)c6c(c5)C(=O)N(C(C(=O)Nc5nccs5)c5ncn7c5CCC7)C6)cc3)C4)c2)C(=O)N1 (centres unmarked) [GT-06257, 2-(6,7-dihydro-5H-pyrrolo[1,2-c]imidazol-1-yl)-2-(6-(4-(8-(3-((2,6-dioxopiperidin-3-yl)amino)benzyl)-3,8-diazabicyclo[3.2.1]octan-3-yl)phenyl)-4-fluoro-1-oxoisoindolin-2-yl)-N-(thiazol-2-yl)acetamide]
- IC50 [4]: 1 to 10 nM

SMILES: CCN1CCN(Cc2ccc(Nc3ncc(F)c(-c4cc(F)c5nc(C)n(C(C)C)c5c4)n3)nc2)CC1 [abemaciclib]
- IC50 [10]: 1000 to 5000 nM

SMILES: O=C1CCC(c2cncc(CCl)c2)C(=O)N1 (centres unmarked) [GT-06991, 3-(5-(chloromethyl)pyridin-3-yl)piperidine-2,6-dione]
- Degradation of substrate protein IKZF3 (substrate protein remaining %) [11]: B (B is defined as substrate protein remaining % > 80%)
- Degradation of substrate protein CK1a (substrate protein remaining %) [12]: B (B is defined as substrate protein remaining % > 80%)
- Degradation of substrate protein IKZF1 (substrate protein remaining %) [13]: B (B is defined as substrate protein remaining % > 80%)
- Degradation of substrate protein IKZF2 (substrate protein remaining %) [14]: A (A is defined as 0% ≤ substrate protein remaining % ≤ 80%)
- Degradation of substrate protein GSPT1 (substrate protein remaining %) [15]: B (B is defined as substrate protein remaining % > 80%)
- Degradation of substrate protein WEE1 (substrate protein remaining %) [16]: B (B is defined as substrate protein remaining % > 80%)

SMILES: O=C1CCC(c2cnc(F)c(CO)c2)C(=O)N1 (centres unmarked) [GT-07074, 3-(6-fluoro-5-(hydroxymethyl)pyridin-3-yl)piperidine-2,6-dione]
- Degradation of substrate protein IKZF3 (substrate protein remaining %) [11]: A (A is defined as 0% ≤ substrate protein remaining % ≤ 80%)
- Degradation of substrate protein CK1a (substrate protein remaining %) [12]: B (B is defined as substrate protein remaining % > 80%)
- Degradation of substrate protein IKZF1 (substrate protein remaining %) [13]: B (B is defined as substrate protein remaining % > 80%)
- Degradation of substrate protein IKZF2 (substrate protein remaining %) [14]: A (A is defined as 0% ≤ substrate protein remaining % ≤ 80%)
- Degradation of substrate protein GSPT1 (substrate protein remaining %) [15]: A (A is defined as 0% ≤ substrate protein remaining % ≤ 80%)
- Degradation of substrate protein WEE1 (substrate protein remaining %) [16]: B (B is defined as substrate protein remaining % > 80%)

Second part, the molecule after the results:

- IC50 [1]: 100 to 500 nM
- IC50 [2]: 100 to 500 nM
- IC50 ([3]; H1299 cells): 100 to 500 nM
SMILES: O=C1CCN(c2ccc(CN3CCN(c4ccc5c(c4)nc(NC(=O)c4cccc(C(F)(F)F)c4)n5[C@H]4CC[C@@H](CO)CC4)CC3)nc2)C(=O)N1 [GT-04986, N-(5-(4-((5-(2,4-dioxotetrahydropyrimidin-1(2H)-yl)pyridin-2-yl)methyl)piperazin-1-yl)-1-((1s,4s)-4-(hydroxymethyl)cyclohexyl)-1H-benzo[d]imidazol-2-yl)-3-(trifluoromethyl)benzamide]

- IC50 [1]: > 10000 nM
- IC50 [2]: 5000 to 10000 nM
- IC50 ([3]; H1299 cells): 5000 to 10000 nM
SMILES: CC[C@@H]1[C@H](F)C(=O)N[C@@H]1COc1nccc2cc(C(N)=O)c(OC)cc12 [PF06650833, reference compound]

- IC50 [1]: 50 to 100 nM
- IC50 [2]: 100 to 500 nM
- IC50 ([3]; H1299 cells): 100 to 500 nM
SMILES: O=C1CCN(c2ccc(CN3CCN(c4ccc5c(c4)nc(NC(=O)c4cccc(C(F)(F)F)c4)n5[C@H]4CC[C@@H](CO)CC4)CC3)cc2)C(=O)N1 [GT-04982, N-(5-(4-(4-(2,4-dioxotetrahydropyrimidin-1(2H)-yl)benzyl)piperazin-1-yl)-1-((1s,4s)-4-(hydroxymethyl)cyclohexyl)-1H-benzo[d]imidazol-2-yl)-3-(trifluoromethyl)benzamide]

- IC50 [1]: 500 to 1000 nM
SMILES: O=C1CCC(Nc2cccc(CN3CCC(N4CCN(c5ccc6c(c5)nc(NC(=O)c5cccc(C(F)(F)F)c5)n6[C@H]5CC[C@@H](CO)CC5)CC4)CC3)c2)C(=O)N1 (some centres unmarked) [GT-05023, N-(5-(4-(1-(3-((2,6-dioxopiperidin-3-yl)amino)benzyl)piperidin-4-yl)piperazin-1-yl)-1-((1s,4s)-4-(hydroxymethyl)cyclohexyl)-1H-benzo[d]imidazol-2-yl)-3-(trifluoromethyl)benzamide]
